Literature values in PMC6225228, “Design, Synthesis and Evaluation of N-pyrazinylbenzamides as Potential Antimycobacterial Agents” (Molecules : A Journal of Synthetic Chemistry and Natural …, 2018).
Where two headings read alike, the source gives them in different places. Marks after values point to notes of the source that are not given here.

How the values were obtained:
[1] = system: Mycobacterium tuberculosis H37Rv (Mtb); details: Šula's semisynthetic medium, cited from earlier work; for Amides MIC (value in parentheses): second value in parentheses
[2] = system: Mycobacterium tuberculosis H37Rv (Mtb); details: cited from earlier work
[3] = pH = 5.6, turbidity, first value

Row | SMILES | Amides MIC [1, 3] | Amides Inhibition (%) at 6.25 μg/mL (TAACF) [2] | other results
1 | O=C(Nc1cccc(C(F)(F)F)c1)c1cnc(Cl)cn1 [Amide R1=5-Cl R2=3-CF3] | 3.13 µg/mL | – | Amides MIC (value in parentheses) ([1]; pH = 5.6, turbidity): 6.25 µg/mL
2 | O=C(Nc1cccc(Cl)c1)c1cnc(Cl)cn1 [Amide R1=5-Cl R2=3-Cl] | 6.25 µg/mL | – | Amides MIC (value in parentheses) ([1]; pH = 5.6, turbidity): 3.13 µg/mL
3 | O=C(Nc1cccc(O)c1)c1cnc(Cl)cn1 [Amide R1=5-Cl R2=3-OH] | 6.25 ^c [18] μg/mL | – | –
4 | O=C(Nc1ccc(Br)cc1)c1cnc(Cl)cn1 [Amide R1=5-Cl R2=4-Br] | 3.13 ^c [18] μg/mL | – | –
5 | O=C(Nc1ccc(O)cc1)c1cnc(Cl)cn1 [Amide R1=5-Cl R2=4-OH] | 3.13 µg/mL | – | Amides MIC (value in parentheses) ([1]; pH = 5.6, turbidity): 12.5 µg/mL
6 | O=C(Nc1ccccc1Cl)c1cncc(Cl)n1 [Amide R1=6-Cl R2=2-Cl] | – | – | Amides MIC ([1]; pH = 5.6, MABA): 100 ^d [34] μg/mL
7 | COc1ccccc1NC(=O)c1cncc(Cl)n1 [Amide R1=6-Cl R2=2-OCH3] | – | 6 [35] % | –
8 | O=C(Nc1cccc(C(F)(F)F)c1)c1cncc(Cl)n1 [Amide R1=6-Cl R2=3-CF3] | – | 77 [32] % | –
9 | O=C(Nc1cccc(Cl)c1)c1cncc(Cl)n1 [Amide R1=6-Cl R2=3-Cl] | – | 14 [33] % | –
10 | COc1cccc(NC(=O)c2cncc(Cl)n2)c1 [Amide R1=6-Cl R2=3-OCH3] | – | 2 [31] % | –
11 | Cc1ccc(NC(=O)c2cncc(Cl)n2)cc1 [Amide R1=6-Cl R2=4-CH3] | – | 71 [32] % | –
12 | O=C(Nc1ccc(Cl)cc1)c1cncc(Cl)n1 [Amide R1=6-Cl R2=4-Cl] | – | 65 [33] % | –
